Measured values reported in the NIST ThermoML archive (doi:10.1021/je034243t).
Numbers after ± are expanded uncertainties.

Assay: xn = mol fraction of the nth substance listed
Details: 291.15 K, Liquid, Vibrating tube method

Structure (SMILES): O=C=O [carbon dioxide] + CCO
- mass density (x1 = 0.184): 819.5 ± 0.4 kg/m3
- mass density (x1 = 0.227): 826.4 ± 0.4 kg/m3
- mass density (x1 = 0.304): 836.8 ± 0.4 kg/m3
- mass density (x1 = 0.455): 855.1 ± 0.3 kg/m3
- mass density (x1 = 0.728): 865.9 ± 0.3 kg/m3
- mass density (x1 = 0.838): 856.5 ± 0.5 kg/m3
- mass density (x1 = 0.951): 828 ± 0.7 kg/m3
- mass density (x1 = 0.983): 811.3 ± 1.2 kg/m3
- mass density (x1 = 0.996): 800.6 ± 1.7 kg/m3
